Results reported in patent publication US20250382621A1, “IMMUNE EFFECTOR CELL THERAPIES WITH ENHANCED EFFICACY” (Novartis AG, priority 2015, published 2025).
Structures can show the parent of a compound that is named as a salt. Where two headings read alike, the source gives them in different places.

Legend:
Pan CD3+ T cells = experiment: Dose response of LSD1 inhibitors on T cell phenotypes; conditions: for CD4+ Tscm percentage: at 100 nM; for EC50: Homo sapiens, T-cell
Protocol: Cells were isolated from in vitro culture, washed once in MACS+0.5% BSA buffer, and stained on ice using either biotinylated Protein L followed by incubated with a fluorochrome-conjugated streptavidin reagent or an antibody recognizing the given target antigen. In all analyses, the population of interest was gated based on forward vs side scatter characteristics, followed by singlet gating, and live cells were gated.
The following parameters were investigated: • 1. Ratio of CD8/CD4 were calculated; • 2. % Tscm, Tem, Tem of CD3+ T cells; • 3. Ratios of Tscm/Tem and Tscm/Tcm of CD3+ T cells were calculated; • 4. % Tscm, Tem, Tem of CD8+ or CD4+ T cells were calculated; • 5. Ratios of Tscm/Tem and Tscm/Tcm of CD8+ or CD4+ T cells were calculated; and/or • 6. In the case of CAR+-T cells, percentage of Tscm, Tem, Tem of CD19-CAR+ T, and BCMA-10-CAR+ T cells were evaluated.
The Tscm population were evaluated as double CD45RA+CCR7+ or triple CD45RA+CCR7+CD62L+ in a given total live CD3+ or subset CD4+ or CD8+ T cell population. Tem were presented as double CD45RA−CCR7− and Tem as CD45RA−CCR7+ in a given total live CD3+ or subset CD4+ or CD8+ T cell population (FIG. 19 and FIG. 25 illustrate the gating strategies).
In all instances, LSD inhibitor compounds were either resuspended in water (H2O) and/or DMSO, depending on compound solubility. In all instances compounds were added throughout the ex vivo T cell culture, and T cells were washed extensively prior to assay. […] In the figures, “control” refers to vehicle with no LSD inhibitor compound added. For Pan CD3+ T cell expansion experiment, compound treatment was started at 4 h or 24 h after activation; for CART cell production, compound treatment was started at 48 h after viral transduction, and all treatments continued through culture period in all conditions.
Compounds were refreshed every 2-3 days when fresh media is replenished. Following 10 days of expansion, T cells were harvested and de-beaded and their phenotypes were analyzed by flow cytometry using antibodies against CD3, CD4, CD8, CD45RA, CCR7, CD62L, CD27 and CD28 plus live/dead dye to exclude the dead cell population.

T cells = experiment: T cell phenotype after expansion with LSD1 shRNA; format: cell-based, human; conditions: for enrichment of TSCM in resulting CD4+ T cell population: vs normal expansion
Protocol: Flow cytometry was performed on a four laser Fortessa (Becton-Dickinson).
T cells were isolated by negative selection and expanded with anti-CD3/CD28 beads at a 3:1 ratio for 10 days. On day 1, T cells were transduced with lentiviral expression vectors containing LSD1 shRNA targeting sequences that co-expressed the fluorescent protein mCherry. Following expansion, T cell phenotypes of mCherry+ T cells were assessed by flow cytometry.

full-length LSD1 = target: T1, full-length LSD1 (Homo sapiens, UniProt O60341); experiment: FL-LSD1 LC-MS assay; format: biochemical; conditions: 0.4 nM FL-LSD1, H3K4me1 peptide substrate, 60 min room temperature; read-out: LCMS IC50 (LSD1 IC50 as measured by LCMS)
T1 construct: the full-length LSD1 and 0.5 pM FAD in reaction buffer
Text: Representative compounds of the present disclosure were serially and separately diluted 3-fold in DMSO to obtain a total of twelve concentrations. […] The data were then fit to a dose response equation using the program Helios to get the IC50 values of the test compound.

[1] = anti-CD3/CD28 beads 3:1, 10 days, mCherry+ cells

Cc1cc2c(cc1C#N)c(-c1cccc(N)c1C)cn2[C@H]1CC[C@H](O)CC1 [Compound 93, Trans-3-(3-amino-2-methylphenyl)-1-(4-hydroxycyclohexyl)-6-methyl-1H-indole-5-carbonitrile]
CD4+ Tscm percentage (Pan CD3+ T cells): about 5%

LSD1 2: shRNA to LSD1, sequence encoding shRNA SEQ ID NO: 127 (DNA CAGAAGGCCTAGACATTAAACCTCGAGGTTTAATGTCTAGGCCTTCTGTTTTTTGA)
enrichment of TSCM in resulting CD4+ T cell population (T cells; CD4+ T cells): enriched in TSCM | percentage of CD8+ T cells having the TSCM phenotype (CD45RA+CD62L+CCR7+CD27+CD95+) (T cells; [1]): ~50%

c1ccc([C@@H]2C[C@H]2NC2CCNCC2)cc1 (relative stereo) [LSD1i-GSK, rel-N-[(1R,2S)-2-Phenylcyclopropyl]-4-Piperidinamine hydrochloride (1:2)]
total expansion rate of total cells (Pan CD3+ T cells; 10 day expansion): without changing the total expansion rate of total cells | ratio of CD8/CD4 (Pan CD3+ T cells; 10 day expansion, dose escalation): can significantly increase the ratio of CD8/CD4 | EC50 (Pan CD3+ T cells; read-out: EC50 for inducing Tscm CD3+ T cells): 1.08 nM | EC50 (Pan CD3+ T cells; read-out: EC50 for inducing Tscm CD8+ T cells): 1.08 nM | CD4+ Tscm percentage (Pan CD3+ T cells): about 5% | ratio of Tscm/Tem of CD3+ T cells (Pan CD3+ T cells; dose elevation, Tscm/Tcm unchanged): increases in response to dose elevation | ratio of Tscm/Tem of CD8+ T cells (Pan CD3+ T cells; dose elevation, hardly seen in the CD4+ population): significantly increases in response to dose elevation | CD3+ Tscm and Tem percentage (Pan CD3+ T cells; observed between 1 nM to 100 nM, Tcm remain the same): could increase/sustain CD3+ Tscm, decrease Tem, in a dose responsive fashion | CD8+ Tscm, CD4+ Tscm and Tem percentage (Pan CD3+ T cells; observed between 1 nM to 100 nM, Tcm unchanged): could increase/sustain CD8+ Tscm and CD4+ Tscm, decrease Tem, in a dose responsive fashion

Cc1ccc(-c2ncc(OC[C@@H]3CCNC3)cc2-c2ccc(C#N)cc2)cc1 [Compound C, (R)-4-(5-(pyrrolidin-3-ylmethoxy)-2-(p-tolyl)pyridin-3-yl)benzonitrile]
IC50 (full-length LSD1): 30 nM

B1: LSD1 1A: shRNA to LSD1, sequence encoding shRNA SEQ ID NO: 125 (nucleic acid)
DNA: CGGTTGCTAGAAGCTACATCTGTTAATATTCATAGCAGATGTAGCTTCTAGCAACCGTTTTTTGA
enrichment of TSCM in resulting CD4+ T cell population (T cells; CD4+ T cells): enriched in TSCM | percentage of CD8+ T cells having the TSCM phenotype (CD45RA+CD62L+CCR7+CD27+CD95+) (T cells; [1]): ~50%

B2: LSD1 1B: shRNA to LSD1, sequence encoding shRNA SEQ ID NO: 126 (nucleic acid)
DNA: CGGTTGCTAGAAGTTACATTTGTTAATATTCATAGCAGATGTAGCTTCTAGCAACCGTTTTTTGA
percentage of CD4+ T cells having the TSCM phenotype (CD45RA+CD62L+CCR7+CD27+CD95+) (T cells; CD4+ T cells, anti-CD3/CD28 beads 3:1, 10 days, mCherry+ cells): up to 20% | percentage of CD8+ T cells having the TSCM phenotype (CD45RA+CD62L+CCR7+CD27+CD95+) (T cells; [1]): ~50%
